Reference: the supplement of paper PMC10307832

What was measured:
Assay in all cases: relative viability (nuclei count vs DMSO), 5 days (fraction); higher = more cells survive
Crizotinib + Decitabine = compound: C[C@@H](Oc1cc(-c2cnn(C3CCNCC3)c2)cnc1N)c1c(Cl)ccc(F)c1Cl [Crizotinib] + Nc1ncn([C@H]2C[C@H](O)[C@@H](CO)O2)c(=O)n1 [Decitabine] (partner 2 µM)
Method in brief: (§1)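 Lung cancer cell lines, seeded in 1536-well plates, were treated the following day by pin tool with a single drug or with five library-drug doses (not always all listed) in √10 steps on top of a fixed anchor-drug dose. Cells were fixed and nuclei stained in one step after 5 days, and nuclei were counted. Relative viability is the nuclei count for treated wells divided by that for vehicle wells, reported as medians of duplicate plates.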

Crizotinib + Linsitinib = compound: C[C@@H](Oc1cc(-c2cnn(C3CCNCC3)c2)cnc1N)c1c(Cl)ccc(F)c1Cl [Crizotinib] + C[C@]1(O)C[C@@H](c2nc(-c3ccc4ccc(-c5ccccc5)nc4c3)c3c(N)nccn32)C1 [Linsitinib] (partner 1 µM)
Method in brief: as §1

Olaparib + Alpelisib = compound: O=C(c1cc(Cc2n[nH]c(=O)c3ccccc23)ccc1F)N1CCN(C(=O)C2CC2)CC1 [Olaparib] + Cc1nc(NC(=O)N2CCC[C@H]2C(N)=O)sc1-c1ccnc(C(C)(C)C(F)(F)F)c1 [Alpelisib] (partner 2 µM)
Method in brief: as §1

Carfilzomib + Linsitinib = compound: CC(C)C[C@H](NC(=O)[C@H](CCc1ccccc1)NC(=O)CN1CCOCC1)C(=O)N[C@@H](Cc1ccccc1)C(=O)N[C@@H](CC(C)C)C(=O)[C@@]1(C)CO1 [Carfilzomib] + C[C@]1(O)C[C@@H](c2nc(-c3ccc4ccc(-c5ccccc5)nc4c3)c3c(N)nccn32)C1 [Linsitinib] (partner 1 µM)
Method in brief: as §1

| Cell Line | relative viability (Crizotinib + Decitabine; first compound 0.01 µM) | relative viability (Crizotinib + Decitabine; first compound 0.03162 µM) | relative viability (Crizotinib + Decitabine; first compound 0.1 µM) | relative viability (Crizotinib + Decitabine; first compound 0.3162 µM) | relative viability (Crizotinib + Decitabine; first compound 1 µM) | relative viability (Crizotinib + Linsitinib; first compound 0.01 µM) | relative viability (Crizotinib + Linsitinib; first compound 0.03162 µM) | relative viability (Crizotinib + Linsitinib; first compound 0.1 µM) | relative viability (Crizotinib + Linsitinib; first compound 1 µM) | relative viability (Olaparib + Alpelisib; first compound 0.08 µM) | relative viability (Olaparib + Alpelisib; first compound 0.253 µM) | relative viability (Olaparib + Alpelisib; first compound 2.53 µM) | relative viability (Olaparib + Alpelisib; first compound 8 µM) | relative viability (Carfilzomib + Linsitinib; first compound 0.001 µM) | relative viability (Carfilzomib + Linsitinib; first compound 0.003162 µM) | relative viability (Carfilzomib + Linsitinib; first compound 0.01 µM) | relative viability (Carfilzomib + Linsitinib; first compound 0.03162 µM) | relative viability (Carfilzomib + Linsitinib; first compound 0.1 µM) | relative viability (Crizotinib + Linsitinib; first compound 0.3162 µM) |
| --- | --- | --- | --- | --- | --- | --- | --- | --- | --- | --- | --- | --- | --- | --- | --- | --- | --- | --- | --- |
| NCI-H1915 | 0.229 | 0.256 | 0.261 | 0.258 | 0.26 | 1.02 | 1.09 | 1.1 | 1.1 | 0.986 | 0.938 | 0.767 | 0.59 | 1.1 | 1.1 | 1.05 | 0.655 | 0.106 |  |
| SW 1573 | 0.431 | 0.529 | 0.483 | 0.404 | 0.456 | 0.707 | 0.73 | 0.802 |  | 0.715 | 0.667 | 0.627 | 0.471 | 0.736 | 0.881 | 0.75 | 0.268 | 0.0735 | 0.802 |
| NCI-H2087 | 0.259 | 0.247 | 0.252 | 0.194 | 0.274 | 0.966 | 0.976 | 0.942 | 1.07 | 1.21 | 0.95 | 1.02 | 0.706 | 0.936 | 1.05 | 0.851 | 0.108 | 0.119 | 0.92 |
| BEN | 0.687 | 0.61 | 0.761 | 0.632 | 0.647 | 0.843 | 0.844 | 0.818 | 0.916 | 1.02 | 1.02 | 1.19 | 0.995 | 0.968 | 1.21 | 0.965 | 0.865 | 0.392 | 1.04 |
| NCI-H1650 | 0.3 | 0.455 | 0.466 | 0.396 | 0.468 |  |  |  |  |  |  |  |  |  |  |  |  |  |  |
| A-427 | 0.54 | 0.561 | 0.526 |  | 0.593 | 1.1 | 1.12 | 1.16 | 1.1 | 1.14 | 1.06 | 0.855 | 0.809 | 1.12 | 1.11 | 1.11 | 1.01 | 0.119 |  |
| CAL-12T |  |  |  |  |  | 0.753 | 0.904 | 0.708 |  | 1.79 | 1.03 | 1.25 | 1.12 | 0.836 | 0.923 | 0.876 | 0.57 | 0.112 | 0.748 |
| EPLC-272H | 0.339 | 0.375 | 0.366 |  | 0.436 | 1.18 | 1.11 | 1.17 | 1.27 | 1.03 | 0.871 | 1.09 | 0.789 | 1.04 | 1.32 | 1.16 | 0.193 | 0.0783 | 1.14 |
| NCI-H23 | 0.296 | 0.272 | 0.331 |  | 0.308 | 0.557 | 0.642 | 0.619 | 0.774 | 0.658 | 0.546 | 0.539 | 0.384 | 0.537 | 0.708 | 0.567 | 0.206 | 0.12 |  |
| NCI-H1563 |  |  |  |  |  | 1.18 | 1.12 | 1.22 | 1.27 | 1.04 | 0.952 | 0.929 | 0.973 | 1.19 | 1.26 | 1.25 | 1.2 | 0.586 | 1.3 |
| Calu-6 |  |  |  |  |  | 0.939 | 1.05 | 0.861 | 0.955 | 1.08 | 1.04 | 0.965 | 0.729 | 0.941 | 1.15 | 0.934 | 0.202 | 0.08 | 0.938 |
| NCI-H2342 | 0.761 | 0.799 | 0.781 | 0.723 |  |  |  |  |  |  |  |  |  |  |  |  |  |  |  |
| NCI-H522 | 0.649 | 0.709 | 0.762 | 0.657 | 0.658 |  |  |  |  |  |  |  |  |  |  |  |  |  |  |
| SW 900 | 0.418 | 0.436 | 0.403 | 0.449 | 0.459 |  |  |  |  |  |  |  |  |  |  |  |  |  |  |
| NCI-H2228 |  |  |  |  |  | 0.629 | 0.733 | 0.718 | 0.328 | 0.746 | 0.657 | 0.78 | 0.534 | 0.592 | 1.04 | 0.524 | 0.156 | 0.103 | 0.371 |
| NCI-H1299 |  |  |  |  |  | 0.988 | 0.992 | 1.02 | 0.984 | 1.03 | 1 | 1.07 | 1.03 | 1.02 | 1.05 | 0.971 | 0.239 | 0.106 | 0.99 |
| ChaGo-K-1 | 0.485 | 0.488 | 0.528 | 0.463 | 0.536 |  |  |  |  |  |  |  |  |  |  |  |  |  |  |
| IA-LM |  |  |  |  |  | 0.611 | 0.748 | 0.649 | 0.609 | 0.929 | 0.738 | 0.76 | 0.509 | 0.58 | 0.687 | 0.836 | 0.0717 | 0.0278 | 0.507 |
| EBC-1 |  |  |  |  |  |  | 0.886 | 0.889 | 0.167 | 0.901 | 0.794 | 0.68 | 0.633 | 0.87 | 0.989 | 0.735 | 0.0736 | 0.0886 | 0.159 |
| NCI-H1703 |  |  |  |  |  | 0.773 | 0.852 | 0.727 | 0.654 | 0.45 | 0.464 | 0.391 | 0.412 | 0.91 | 1.22 | 0.44 | 0.132 | 0.0996 | 0.777 |
